# Where a SMILES comes first, the peptide text is derived from it. Where no end group is shown, it is not given here.
# Key:
# [1] = tested on: clathrin mediated endocytosis, caveolae-mediated endocytosis and micropinocytosis; test: Endocytic experiments: transfection in the presence of uptake inhibitors; format: cell-based; settings: inhibitor added to G1,2,3-RL-D/D-DNA nanoparticle transfection
# Method: The uptake mechanism of the composition of the invention was investigated. Chlorpromazine was used to inhibit clathrin mediated endocytosis. Genistein and Rottlerin were also used; these agents have been reported to inhibit caveolae-mediated endocytosis and micropinocytosis respectively.
# Cells were preincubated with each inhibitor (chlorpromazine, genstein and rottlerin) for 30 min at 37 C.
# Subsequently transfection was performed for a further 4 h at 37 C as described in the transfection section, in the presence of the inhibitor.
# HeLa cells [2] = test: Cell viability after transfection (crystal violet); format: cell-based, human; settings: following transfection with DNA formulations
# Method: Cell viability. Cells were transfected as described in ‘Transfection Procedure’. Following 24 hours of transfection, the medium was removed and the cells were washed twice with PBS. Afterwards, the cells were dried for 1 hour at room temperature (to allow permeation of the nuclear stain). Crystal violet solution (50 μL of stock solution supplied by Sigma-Aldrich) was added to the cells. They were incubated for 15 min at room temperature. After washing with distilled water (5 times), the cells were dried for 30 min at room temperature. Then, MeOH (200 μL) was added and the suspension was incubated for 1 hour at room temperature. The relative amount of the crystal violet stain retained by viable cells was determined by the absorbance of the methanolic solution at 550 nm.
# [3] = cited from earlier work
# mice tissue [4] = test: In vivo luciferase DNA expression assays; settings: intravenous; DOTMA/DOPE w/w=1:1 to DNA; NP 20:1; 24 h
# Method: Mice were injected with the dendrimers, lipid and DNA formulations, and tissues were isolated and snap-frozen for luciferase expression analysis 24 h and 48 h post intravenous and intramuscular injection respectively.
# The tissues were homogenised with 1× reporter lysis buffer supplemented with Protease Inhibitors. Depending on the tissues, 1.5 to 3 times of the lysis buffer was used for the tissue homogenisation. Following the homogenisation, the lysates were centrifuged and the supernatants were used for assaying luciferase expression and protein content. The luciferase expression level was measured with a luminometer using a luciferase assay kit (Promega), following the manufacturer's instructions. The protein content was measured using a Biorad protein assay kit at 595 nm absorbance, following the manufacturer's instructions.
# Mice were injected with the dendrimers, lipid and DNA formulation prepared for detection of luciferase expression post injection. Tissues were isolated and snap-frozen for luciferase expression analysis 24 h and 48 h post intravenous and intramuscular injection respectively.
# [5] = Hydrodynamic size, polydispersity index and zeta potential of dendrimer, lipid and mRNA complexes; format: physicochemical; settings: DOTMA/DOPE w/w 10:1 to mRNA; for Hydrodynamic size: dendrimer, lipid and mRNA complexes
# Method: The hydrodynamic size, polydispersity index and Zeta potential was determined for a set of the dendrimers disclosed in Tables 1 and 2.
# immune cells = test: Immune cell targeting: uptake of labelled mRNA after intravenous injection (flow cytometry); format: in vivo, mice
# Method: Fifteen 5-7-week-old female CD-1 mice (Charles River UK) were dosed with 1 mg/kg of either mRNA labelled with Alexa Fluor488 only or mRNA labelled with Alexa Fluor488 with NTX1 and DOTMA/DOPE or mRNA labelled with Alexa Fluor488 with G1,2-RL, 3-LR and DOTMA/DOPE or mRNA labelled with Alexa Fluor488 with G1,2-RL, 3-LR and DOTMA/DOPE, respectively, via intravenous injection using a dose volume of 5 ml/kg. Group 1 received vehicle and Group 5 received mRNA alone as controls. Mice in al groups were culled 2 hours post IV administration. At the time of euthanasia, whole blood, spleen, inguinal lymph nodes and femurs were collected from all mice. White Blood Cells (WBC) were obtained from EDTA treated whole blood, spleen, inguinal lymph nodes and bone marrow for flow cytometry analysis. In short, bone marrow (BM) was flushed from femurs, and spleens and lymph nodes were processed to single cell suspensions by passing them through a 70 μm filter. Red blood cells in blood, BM and spleen were lysed before isolated WBCs from all tissues were stained with different antibody panels to identify specific sub-populations of immune cells. The staining was performed in a 96-well plate format before samples were analysed using an ACEA Novocyte 3005 flow cytometer.
# HeLa cells [6] = test: mRNA (eGFP) transfection with peptide dendrimers and DOTMA/DOPE in full growth medium; format: cell-based, human; settings: HeLa; full growth medium; DOTMA/DOPE w/w 10:1 to mRNA; relative to G1,2-RL, 3-LR
# Method: FIG. 28. mRNA transfection of the peptide dendrimers with lipid system in vitro. […] The mRNA used expressed an eGFP reporter gene. Following a 24 hour transfection, the cells were harvested to assay the eGFP expression. The eGFP expression was normalised with the total amount of protein of each transfection. The gene expression level was calculated by normalising the transfection value of the G1,2-RL, 3-LR, DOTMA/DOPE & mRNA treated cells. 1st, 2nd and 3rd generation dendrimers with varying cores and 1st, 2nd, and 3rd generation peptide motifs can transfect cells with mRNA effectively under the tested conditions.
# FIG. 29. mRNA transfection of the peptide dendrimers with lipid system in vitro. HeLa cells were transfected with mRNA alone or mRNA with peptide dendrimers and DOTMA/DOPE (w/w=10:1 to mRNA). The N:P ratio of G1,2-RL,3-LR was at 0.16:1 while the N:P ratios of all other dendrimers at 8:1. The mRNA used expressed an eGFP reporter gene. Following a 24 hour transfection, the cells were harvested to assay the eGFP expression. The eGFP expression was normalised with the total amount of protein of each transfection. The gene expression level was calculated by normalising the transfection value of the G1,2-RL, 3-LR, DOTMA/DOPE & mRNA treated cells. 1st, 2nd and 3rd generation dendrimers with varying cores and 1st, 2nd, and 3rd generation peptide motifs can transfect cells with mRNA effectively under the tested conditions.
# The effect on the number of generations of dendrimers on mRNA delivery was studied by transfecting HeLa cells in full growth medium conditions.
# mice tissue [7] = test: In vivo luciferase mRNA expression assays; settings: intravenous, NP 0.15:1, DOTMA/DOPE w/w=10:1 to mRNA, 6 hours
# Method: Peptide dendrimers were diluted to a respective concentration and mixed with mRNA for a desired NP ratio such as NP=0.15:1 or 8:1. The solution was incubated in room temperature for 10 mins. Lipid such as DOTMA/DOPE was diluted to a respective concentration and mixed with the dendrimer-mRNA complexes for a desired NP ratio such as NP-4.7:1. The solution was incubated in room temperature for 20 mins. When required, the solution would be further diluted before injection.
# All animal procedures conducted in our studies complied with UK laws and were inclusive of ethics approval. Female CD-1 mice (n=39) aged 6-8 weeks left to habituate for 1-week upon their arrival. All mice were weighed, and the formulations were delivered intravenously (100 μl) via the tail vein using 30G insulin syringes (BD biosciences).
# All mice were imaged 6 hours post injection. BLI was performed using an IVIS Lumina II (Perkin Elmer) Imaging system. Mice were administered D-luciferin (30 mg/mL, XenoLight, Perkin Elmer) at a dose of 150 mg/kg. Mice were anaesthetised 6 mins after receiving D-luciferin in a chamber with 5% isoflurane and then placed on a heated imaging platform while being maintained on 2.5% isoflurane. Mice were imaged 10 min post administration of D-luciferin with an exposure time set to ensure the signal acquired was within an effective detection range (open filter, binning 8, f-stop 1). Bioluminescence signal was quantified by measuring photon flux (photons/s) in the defined region of interest (ROI) using the Living Image software (Perkin Elmer). Following in vivo whole-body imaging, the mice were euthanised, cardiac blood taken, and the tissues extracted for ex vivo imaging. Here each tissue was placed into individual wells of a 24-well imaging plate (black sided, Eppendorf) containing 0.3 mg/mL D-luciferin in PBS). The imaging plate was placed in the centre of imaging platform (Lumina II system) and signal was measured using the acquisition settings detailed above. Finally, the tissues were placed in storage vials and flash frozen in liquid nitrogen.
# Mice were injected with a composition comprising DOTMA/DOPE, mRNA encoding luciferase and either G1,2,3-RL, (FIG. 10, top panel; the “G1,2,3-RL, lipid and mRNA formulation”) or G1,2-RL,3-LR (FIG. 10, bottom panel: the “G1,2,3-RL, lipid and mRNA formulation”). Each formulation was prepared and injected at an NP ratio of 8:1 and 0.15:1. Mice were prepared for detection of luciferase expression post injection.
# C2C12 cells = test: In vitro DNA (luciferase reporter) delivery; format: cell-based; settings: N:P=8:1, DOTMA/DOPE w/w=1:1 to DNA
# Excerpt: FIG. 25. In vitro DNA delivery to HeLa and C2C12 cells. HeLa cells were transfected with either DNA alone, G1,2,3-RL (N:P=5:1) and DOTMA/DOPE (at a w/w=1:1 to DNA) with DNA and G1,2,3-RL (N:P=5:1) and DOPG/DOPE (at a w/w=1:1 to DNA) with DNA (top panel). C2C12 cells (a muscle-derived cell line) were transfected with either DNA alone, polyethylenimine with DNA, G1,2-RL, 3-LR (N:P=8:1) and DOTMA/DOPE (at a w/w=1:1 to DNA) with DNA and NTX2 (N:P=8:1) and DOTMA/DOPE (at a w/w=1:1 to DNA) with DNA (bottom panel). The DNA used in both experiments encodes a luciferase reporter gene. NTX2 is a G1,2-RL, 3-LR dendrimer conjugated to a muscle targeting peptide ASSLINA ((LR)8(KRL)4(KRL)2KGSCGAASSLNIA(Acp)-NH2).
# NTX2 is a G1,2-RL, 3-LR dendrimer conjugated to a muscle targeting peptide ASSLINA ((LR)8(KRL)4(KRL)2KGSCGAASSLNIA(Acp)-NH2).
compound,measurement,setting,value
O=c1c(-c2ccc(O)cc2)coc2cc(O)cc(O)c12 [Genistein],inhibition of transfection,[1],around 50%
CN(C)CCCN1c2ccccc2Sc2ccc(Cl)cc21 [Chlorpromazine],inhibition of transfection,[1],80%
"KLKLKGSC-NH2 [G1-KL, (KL)2KGSC-NH2]",cell death,HeLa cells [2],40%
Lipopolysaccharides,TNF-alpha level,[3]; in vivo,up to 5000 μg/mL
ClC(Cl)(Cl)Cl [carbon tetrachloride],AST and ALT threshold levels in disease model of liver damage,[3]; Bonnet et al 2008,greater than 7000 U/L
"(LR)8(KLR)4(KLR)2KGSC-NH2 [G1,2,3-LR]","luciferase expression in tissues, DNA delivery",mice tissue [4],the most effective delivery to skeletal muscle
same,Polydispersity Index (PDI),[5]; N:P 0.16:1,0.168
same,Zeta Potential,[5]; N:P 0.16:1,43 mV
same,Polydispersity Index (PDI),[5]; N:P 8:1,0.272
same,Zeta Potential,[5]; N:P 8:1,60 mV
same,Hydrodynamic size,[5]; N:P 0.16:1,121 nm
same,Hydrodynamic size,[5]; N:P 8:1,83 nm
"CC(C)C[C@H](NC(=O)[C@@H](N)CCCNC(=N)N)C(=O)NCCCC[C@H](NC(=O)[C@H](CC(C)C)NC(=O)[C@@H](N)CCCNC(=N)N)C(=O)NCC(=O)N[C@@H](CO)C(=O)N[C@@H](CS)C(N)=O [G1-RL, (RL)2KGSC-NH2] (HELM PEPTIDE1{R.L.K.G.S.C.[am]}|PEPTIDE2{R.L}$PEPTIDE1,PEPTIDE2,3:R3-2:R2$$$V2.0)",cell death,HeLa cells [2],40%
CC(=O)c1c(O)c(C)c(O)c(Cc2c(O)c3c(c(C(=O)/C=C/c4ccccc4)c2O)OC(C)(C)C=C3)c1O [Rottlerin],inhibition of transfection,[1],around 50%
(LR)8(KRL)4(KRL)2KGSCGAASSLNIAXRXRRBRRXRRBRXB-NH2 [NTX1],delivery of mRNA to immune cells,"immune cells; blood, 2 hours post-injection",Delivery of mRNA to a wide range of immune cells present in the blood is possible
same,uptake of mRNA in immune cells,"immune cells; bone marrow, 2 hrs post-injection",mediated uptake of mRNA in immune cells present in the bone marrow
same,"mRNA transfection efficiency (eGFP), in words",HeLa cells [6],"more effectively than G1,2-RL, 3-RL"
same,Polydispersity Index (PDI),[5]; N:P 0.16:1,0.13
same,Zeta Potential,[5]; N:P 0.16:1,37 mV
same,Hydrodynamic size,[5]; N:P 0.16:1,128 nm
same,"luciferase expression in tissues, mRNA delivery",mice tissue [7],"improves efficiency of mRNA delivery to lung, spleen, and lymph nodes"
same,"luciferase expression in tissues, mRNA delivery",mice tissue [7]; listed as NXT1,"more effective than G1,2,3-RL and G1,2-RL,3-LR"
(LR)8(KRL)4(KRL)2KGSCGAASSLNIA(Acp)-NH2 [NTX2],luciferase expression after DNA transfection,C2C12 cells,further increase transfection efficiency

# Reference: patent publication US20240108753A1, “NUCLEIC ACID DELIVERY” (NUNTIUS THERAPEUTICS LIMITED, priority 2021, published 2024)
